# Results as given in PMC5011961, “In vitro antimicrobial activities of animal-used quinoxaline 1,4-di-N-oxides against mycobacteria, mycoplasma and fungi” (BMC Veterinary Research, 2016).
# Like-named read-outs stand apart in the source and are kept apart here.
# Columns and labels:
# PPV = experiment: Antiviral assay (CPE/MTT; adsorption inhibition, infection inhibition, virucidal); assay type: cell-based, porcine parvovirus; design: key to IC50: “--” represent not detected owing to the low inhibition ratio; settings: for IC50: PPV, mean±SD of four experiments
# Marc-145 cells = experiment: Cytotoxicity assay (MTT); settings: for TC50: Marc-145, 72 h, MTT, mean ± SD, n = 4; for MNTC: Marc-145, maximum non-cytotoxic concentration (90 % cell viability)
# IBDV = experiment: Antiviral assay (CPE/MTT; adsorption inhibition, infection inhibition, virucidal); assay type: cell-based, infectious bursal disease virus; design: key to IC50: “--” represent not detected owing to the low inhibition ratio; settings: for IC50: IBDV, mean±SD of four experiments
# PRRSV = experiment: as above; assay type: cell-based, porcine reproductive and respiratory syndrome virus; design: key to IC50: “--”represent not detected owing to the low inhibition ratio; settings: for IC50: PRRSV, mean±SD of four experiments
# PK-15 cells = experiment: Cytotoxicity assay (MTT); settings: for TC50: PK-15, 72 h, MTT, mean ± SD, n = 4; for MNTC: PK-15, maximum non-cytotoxic concentration (90 % cell viability)
# DF-1 cells = experiment: Cytotoxicity assay (MTT); settings: for TC50: DF-1, 72 h, MTT, mean ± SD, n = 4; for MNTC: DF-1, maximum non-cytotoxic concentration (90 % cell viability)
# M. gallisepticum = experiment: Antimycoplasma assay, MIC in microtiter plates; settings: Mycoplasmoides gallisepticum
# Experimental: Briefly, 96-well microtiter Sensititre plates containing stabilized and freeze-dried antimicrobials were used. Three wells on each plate were set as antimicrobial free growth control. Freshly thawed mycoplasma isolates with known titers were diluted in liquid medium until the number of organisms reached 10^4 color changing units/mL. 50 μL of the diluted culture was transferred into each well of the Sensititre plates. […] The plates were sealed using an adhesive foil and incubated at 36 °C for 14 days. The growth of M. hyopneumoniae was observed daily when the color of the medium changed from red to yellow (phenol red indicator), and the initial and final MICs were recorded.
# [1] = in words, infection inhibition, virucidal and adsorption inhibition assays
# [2] = M. gallisepticum BG44T (10^4ccu/mL)
# [3] = M. gallisepticum PG31 (10^8 ccu/mL)
SMILES,IC50 (PPV; Inactivation),IC50 (PPV; Prevention),IC50 (PPV; Treatment),TC50 (Marc-145 cells) [µg/mL],MNTC (Marc-145 cells) [µg/mL],IC50 (IBDV; Inactivation),IC50 (IBDV; Prevention),IC50 (IBDV; Treatment),IC50 (PRRSV; Inactivation),IC50 (PRRSV; Prevention),IC50 (PRRSV; Treatment),TC50 (PK-15 cells) [µg/mL],MNTC (PK-15 cells) [µg/mL],TC50 (DF-1 cells) [µg/mL],MNTC (DF-1 cells) [µg/mL],MIC (M. gallisepticum; [2]) [µg/mL],MIC (M. gallisepticum; [3]) [µg/mL],also measured
"Cc1c(C(C)O)[n+]([O-])c2ccccc2[n+]1[O-] (centres unmarked) [M6, carbonyl reduction mequindox]",--,--,--,89.82 ± 1.57,2.0,--,--,--,--,--,--,78.82 ± 3.57,2.0,41.26 ± 1.27,2.0,,,
"CC(=O)c1nc2ccccc2nc1C [M1, bi-deoxy Mequindox]",--,--,--,70.77 ± 1.57,1.0,--,--,--,--,--,--,72.90 ± 2.66,2.0,54.8 ± 1.93,1.0,,,
"NC(=O)c1ncn([C@@H]2O[C@H](CO)[C@@H](O)[C@H]2O)n1 [Ribavirin, ribavirin]",,,,75.49 ± 2.54,8.6,,,,,,,,,67.42 ± 2.58,4.0,,,"IC50 (PPV; Porcine parvovirus, Inactivation, read-out: IC50): 0.85 ± 0.17 µg/mL; IC50 (PPV; Porcine parvovirus, Prevention, read-out: IC50): 0.68 ± 0.15 µg/mL; IC50 (PPV; Porcine parvovirus, Treatment, read-out: IC50): 0.49 ± 0.07 µg/mL; effectiveness against PPV in vitro (PPV; [1]): good inhibitory activity; IC50 (IBDV; Infectious bursal disease virus, Inactivation, read-out: IC50): 1.18 ± 0.21 µg/mL; IC50 (IBDV; Infectious bursal disease virus, Prevention, read-out: IC50): 0.87 ± 0.18 µg/mL; IC50 (IBDV; Infectious bursal disease virus, Treatment, read-out: IC50): 0.58 ± 0.12 µg/mL; effectiveness against IBDV in vitro (IBDV; [1]): good inhibitory activity; IC50 (PRRSV; Porcine reproductive and respiratory syndrome virus, Inactivation, read-out: IC50): 6.29 ± 0.38 µg/mL; IC50 (PRRSV; Porcine reproductive and respiratory syndrome virus, Prevention, read-out: IC50): 9.58 ± 0.56 µg/mL; IC50 (PRRSV; Porcine reproductive and respiratory syndrome virus, Treatment, read-out: IC50): 4.64 ± 0.24 µg/mL; effectiveness against PRRSV in vitro (PRRSV; [1]): good inhibitory activity"
"N#CCC(=O)N/N=C/c1cnc2ccccc2n1 [Cy1, bi-deoxy Cyadox]",--,--,--,37.83 ± 1.67,3.9,--,--,--,--,--,--,23.40 ± 2.14,2.0,32.97 ± 2.35,2.0,,,
"C[C@H]1c2cccc(O)c2C(=O)C2=C(O)[C@]3(O)C(=O)C(C(N)=O)=C(O)[C@@H](N(C)C)[C@@H]3[C@@H](O)[C@@H]21 [Doxycycline, doxycycline]",,,,,,,,,,,,,,,,0.1,0.2,
"CN(C)[C@@H]1C(O)=C(C(N)=O)C(=O)[C@@]2(O)C(O)=C3C(=O)c4c(O)cccc4[C@@](C)(O)[C@H]3C[C@@H]12 [Tetracycline, tetracycline]",,,,,,,,,,,,,,,,0.4,0.8,
"CCC[C@@H]1C[C@@H](C(=O)N[C@@H]([C@H]2O[C@H](SC)[C@H](O)[C@@H](O)[C@H]2O)[C@@H](C)O)N(C)C1 [Lincomycin, lincomycin]",,,,,,,,,,,,,,,,8,8,
"Cc1nc2ccccc2nc1C(C)O (centres unmarked) [M5, carbonyl reduction bi-deoxy mequindox]",--,--,--,89.66 ± 2.14,2.0,--,--,--,--,--,--,40.41 ± 3.21,2.0,38.2 ± 2.09,2.0,,,
"CN1C[C@@H]2C[C@H]1CN2c1cc2c(cc1F)c(=O)c(C(=O)O)cn2C1CC1 [Danofloxacin, danofloxacin]",,,,,,,,,,,,,,,,0.05,0.05,
"CO[C@@H]1[C@@H](O[C@@H]2O[C@H](C)[C@@H](O[C@H]3C[C@@](C)(O)[C@@H](OC(=O)CC(C)C)[C@H](C)O3)[C@H](N(C)C)[C@H]2O)[C@@H](CC=O)C[C@@H](C)[C@@H](O)/C=C/C=C/C[C@@H](C)OC(=O)C[C@H]1O [Kitasamycin, kitasamycin]",,,,,,,,,,,,,,,,0.05,0.05,
